According to patent publication US20240132445A1, “PHENOL DERIVATIVE AND APPLICATION THEREOF IN MEDICAMENTS” (priority 2021, published 2024):

Assays:
in vivo [1] = conditions: both, ICR, mouse, in vivo, iv
Procedure: (§1) SPF-grade ICR mice, each weighing 18-22 g, half male and half female, were used. A well-established mouse anesthesia model was used to study the general anesthesia effect of the compound of the present invention. The compounds were formulated with solvents of 10% DMSO, 15% solutol (HS15) and 75% saline to the desired concentration, for further use. After adapting to the experimental environment, the experimental animals were fasted with water available for 12 h, and were administered via intravenous injection at an administration volume of 10 mL/kg. Then the anesthesia induction time (the time period from drug administration to disappearance of the righting reflex) and the anesthesia maintenance time (the time period from disappearance of the righting reflex to recovery of the righting reflex) were recorded. Indicators including the median effective dose (ED50), median lethal dose (LD50), therapeutic index (TI, i.e. LD50/ED50), anesthesia induction time, anesthesia maintenance time and maximum tolerated dose were used to evaluate the effect and safety of anesthesia.

ICR mice = assay: animal or person; conditions: for ED50: Mus musculus
Procedure: as §1

in vivo [2] = type: in vivo, rats; conditions: both sexes, Sprague-Dawley, rat, in vivo, iv
Procedure: (§2) SD rats, half male and half female, were fasted with water available for 12 h, and were administered via intravenous injection at an administration volume of 10 mL/kg. Then the anesthesia induction time (the time period from drug administration to disappearance of the righting reflex), the anesthesia maintenance time (the time period from disappearance of the righting reflex to recovery of the righting reflex and revival) and the anesthesia recovery time (the time period from revival to complete recovery) were recorded. Indicators including the median effective dose (ED50), median lethal dose (LD50), therapeutic index (TI, i.e. LD50/ED50), anesthesia induction time, anesthesia maintenance time and maximum tolerated dose were used to evaluate the effect and safety of anesthesia.

SD rats = assay: animal or person; type: in vivo
Procedure: as §2

[3] = Pharmacokinetic study in rats; type: in vivo, SD rats; conditions: male, Sprague-Dawley, rat, plasma, iv, 1 mg/kg
Procedure: Twelve male SD rats (200-300 g) were randomized into 2 groups (n=6): control group 3 and compound 20. The rats were administered via intravenous injection at 1 mg/kg (control group 3) and 1 mg/kg (compound 20), respectively, with an administration volume of 5 mL/kg and a vehicle of 5% DMSO+10% solutol (HS15)+85% Saline. Blood samples were taken before administration and at 2 min, 4 min, 8 min, 12 min, 15 min, 30 min, 1 h, 1.5 h and 2 h after administration. Plasma samples were taken by centrifugation, and stored in a −80° C. refrigerator until LC-MS analysis to be tested. After sample processing, quantitative analysis of substances in plasma was conducted using LCMS/MS to detect the concentration of prototype compounds in the plasma. The plasma concentration/time curve obtained in this way was used to calculate pharmacokinetic parameters by a validated pharmacokinetic computer program.

Beagle dogs = assay: Hemodynamic effect study in conscious Beagle dogs (telemetry); type: in vivo; conditions: iv, control group 3 2 mg/kg, compound 20 0.5 and 1 mg/kg, within 1 h, recovery after 1 h
Procedure: The experiment used an emka PACK 4G telemetry system to detect the effects of intravenous injection of control group 3 and compound 20 on electrocardiogram, blood pressure and body temperature in conscious Beagle dogs, providing reference information for evaluating the safety of clinical use.
Four Beagle dogs were subjected to crossover administration, with a vehicle control (5% DMSO+10% solutol+85% Saline), control group 3 (2 mg/kg), compound 20 (0.5 mg/kg) and compound 20 (1 mg/kg) for each intravenous injection, with an administration volume of 2 mL/kg. Observations were respectively conducted before administration and within 1 h after administration on the day of administration. Anal temperature was measured before administration and at 30 min, 1 h, 2 h and 3 h after administration during each administration period; and electrocardiogram parameters were continuously collected from 0.5 h before administration to 3 h after administration during each administration period. Blood pressure was collected at 15 min after collection was started, and was collected at 2 min, 5 min, 10 min, 20 min, 30 min, 1 h, 2 h and 3 h after administration. The electrocardiogram, blood pressure data, body temperature, and clinical observation results on the day of administration at various time points including before administration (at 30 min after collection was started) and at 2 min, 5 min, 10 min, 20 min, 30 min, 1 h, 2 h and 3 h after administration were analysed and evaluated.

[4] = Pharmacokinetic study in Beagle dogs; type: in vivo; conditions: male, dog, plasma, iv, 0.5 mg/kg
Procedure: Six male Beagle dogs (6-10 kg) were randomized into 2 groups (n=3): control group 3 and compound 20. The […] were administered via intravenous injection at 0.5 mg/kg (control group 3) and 0.5 mg/kg (compound 20), respectively, with an administration volume of 1 mL/kg and a vehicle of 5% DMSO+10% solutol (HS15)+85% Saline. Blood samples were taken before administration and at 2 min, 5 min, 10 min, 20 min, 30 min, 1 h, 1.5 h, 2 h and 3 h after administration. Plasma samples were taken by centrifugation, and stored in a −80° C. refrigerator until LC-MS analysis to be tested. After sample processing, quantitative analysis of substances in plasma was conducted using LCMS/MS to detect the concentration of prototype compounds in the plasma. The plasma concentration/time curve obtained in this way was used to calculate pharmacokinetic parameters by a validated pharmacokinetic computer program.

[5] = mice, iv, administration to disappearance of righting reflex
[6] = mice, iv, disappearance to recovery of righting reflex

| SMILES | LD50 (in vivo [1]) [mg/kg] | MTD (in vivo [1]) [mg/kg] | ED50 (ICR mice; iv) [mg/kg] | TI (ICR mice; mice, LD50/ED50) | Anesthesia induction time (ICR mice; [5]) [s] | Anesthesia maintenance time (ICR mice; [6]) [s] | further results |
| --- | --- | --- | --- | --- | --- | --- | --- |
| CC(c1cccc(C(C)[S+](C)[O-])c1O)C1CC1 (stereo not shown) [Compound 5, 2-(1-cyclopropylethyl)-6-(1-(methylsulfinyl)ethyl)phenol] | 10 | 8 | 6 | 1.7 | 2 | 1638 |  |
| CC(c1cccc(C(C)S(=O)(=O)C(C)C)c1O)C1CC1 (stereo not shown) [Compound 6, 2-(1-cyclopropylethyl)-6-(1-(isopropylsulfonyl)ethyl)phenol] | 34 | 22 | 11 | 3.1 | 5 | 579 |  |
| CC(c1cccc(C(C)S(C)(=O)=O)c1O)C1CC1 (stereo not shown) [Compound 4, 2-(1-cyclopropylethyl)-6-(1-(methylsulfonyl)ethyl)phenol] | 10 | 4 | 2 | 5.0 | 2 | 356 |  |
| CC(C)c1cccc(C(C)C2CC2)c1O (stereo not shown) [Control group 2, ciprofol, reference compound] | 17 | 9 | 3.5 |  |  |  | Anesthesia induction time (ICR mice; mouse, in vivo): 2 s; Anesthesia maintenance time (ICR mice; mouse, in vivo): 534 s; TI (ICR mice; mouse, in vivo): 4.9 |
| CCS(=O)(=O)C(C)c1cccc(C(C)C2CC2)c1O (stereo not shown) [Compound 11, 2-(1-cyclopropylethyl)-6-(1-(ethylsulfonyl)ethyl)phenol] | 11 | 6 | 2 | 5.5 | 22 | 560 |  |
| CC(C)c1cccc([C@H](C)C2CC2)c1O [Control group 3, ciprofol, reference compound] | 6 | 3.1 | 1.2 |  |  |  | LD50 (in vivo [2]): 5.6 mg/kg; MTD (in vivo [2]): 4 mg/kg; ED50 (SD rats; Rattus norvegicus, iv): 1.1 mg/kg; Anesthesia induction time (SD rats; rat, in vivo): 34 s; Anesthesia maintenance time (SD rats; rat, in vivo): 409 s; TI (SD rats; rat, in vivo): 5.1; AUC(0-t) [3]: 142 ng·h/mL; half-life [3]: 50.6 min; change in heart rate after administration (Beagle dogs): slow down in heart rate; Anesthesia induction time (ICR mice; mouse, in vivo): 2 s; Anesthesia maintenance time (ICR mice; mouse, in vivo): 521 s; TI (ICR mice; mouse, in vivo): 5; AUC(0-t) [4]: 145 ng·h/mL; half-life [4]: 37.8 min |
| CC(C)c1cccc(C(C)C)c1O [Control group 1, propofol, reference compound] | 31 |  | 12 |  |  |  | Anesthesia induction time (ICR mice; mouse, in vivo): 19 s; Anesthesia maintenance time (ICR mice; mouse, in vivo): 586 s; MTD (ICR mice; mouse, in vivo, iv): 20 mg/kg |
| CCS(=O)(=O)[C@H](C)c1cccc([C@@H](C)C2CC2)c1O [Compound 21, 2-((S)-1-cyclopropylethyl)-6-((R)-1-(ethylsulfonyl)ethyl)phenol] | 6 | 3.5 | 2.5 | 2.4 | 2 | 354 |  |
| CCC(c1cccc(C(C)C2CC2)c1O)S(C)(=O)=O (stereo not shown) [Compound 14, 2-(1-cyclopropylethyl)-6-(1-(methylsulfonyl)propyl)phenol] | 12 | 9 | 4 | 3.0 | 2 | 499 |  |
| CC(C)c1cccc(C(C)[S+](C)[O-])c1O (stereo not shown) [Compound 2, 2-isopropyl-6-(1-(methylsulfinyl)ethyl)phenol] | 17 | 10 | 6 | 3.8 | 2 | 690 |  |
| CC(C)c1cccc(C(C)S(C)(=O)=O)c1O (stereo not shown) [Compound 1, 2-isopropyl-6-(1-(methylsulfonyl)ethyl)phenol] | 35 | 24 | 8 | 4.4 | 60 | 255 |  |
| CCS(=O)(=O)[C@H](C)c1cccc([C@H](C)C2CC2)c1O [Compound 23, 2-((R)-1-cyclopropylethyl)-6-((R)-1-(ethylsulfonyl)ethyl)phenol] | 14 | 10 | 7 | 2 | 2 | 294 |  |
| CCS(=O)(=O)[C@@H](C)c1cccc([C@@H](C)C2CC2)c1O [Compound 22, 2-((S)-1-cyclopropylethyl)-6-((S)-1-(ethylsulfonyl)ethyl)phenol] | 18 | 9 | 5 | 3.6 | 2 | 384 |  |
